Experimental data published in paper PMC3433414, “Oral Administration of the Pimelic Diphenylamide HDAC Inhibitor HDACi 4b Is Unsuitable for Chronic Inhibition of HDAC Activity in the CNS In Vivo” (PLoS ONE, 2012).

What was measured:
[1] = Permeability in MDCK cells; type: in vitro ADME; settings: dog, pH 7.4
Method: The MDR1-MDCKII and wild type MDCKII cell lines (obtained from SOLVO Biotechnology) were cultured in accordance with the guidelines provided by SOLVO Biotechnology. Both wild-type MDCK and MDR1-MDCK cells were seeded at a cell density of 2.3×10^5 cells/well into 24-well Transwell plates and cultured for three days to form monolayers. Test compound was loaded into the donor compartments of the Transwell plate (24-well) bearing MDR1-MDCK or wild type MDCK monolayers. Test compound was added to either the apical or basolateral chambers of the Transwell plate assembly at a concentration of 10 µM in Hanks’ Balanced Salt Solution containing 25 mM HEPES (pH 7.4). Lucifer Yellow was added to the apical buffer in all wells and its permeation monitored to assess integrity of the cell layer. […] Concentrations of compound in the samples were measured by LC-MS/MS. Concentrations of LY in the samples were measured using a fluorescence plate reader. The apparent permeability (Papp) values of test compound were determined for both the apical to basal (A>B) and basal to apical (B>A) permeation and the efflux ratio (B>A: A>B) determined in both the wild type MDCK and MDR1-MDCK cells. Apparent permeability (Papp) values were calculated from the relationship: [drawing 5] […]

human recombinant HDAC1 = molecular target: T1, human recombinant HDAC1 (Homo sapiens, UniProt Q13547); assay: Two-step fluorogenic deacetylase assay, recombinant HDAC1; type: biochemical
T1 construct: purified recombinant human full length HDAC1 (cat# 50051); purchased BPS Bioscience (San Diego, CA) 50051
T1 sequence (Q13547 whole entry): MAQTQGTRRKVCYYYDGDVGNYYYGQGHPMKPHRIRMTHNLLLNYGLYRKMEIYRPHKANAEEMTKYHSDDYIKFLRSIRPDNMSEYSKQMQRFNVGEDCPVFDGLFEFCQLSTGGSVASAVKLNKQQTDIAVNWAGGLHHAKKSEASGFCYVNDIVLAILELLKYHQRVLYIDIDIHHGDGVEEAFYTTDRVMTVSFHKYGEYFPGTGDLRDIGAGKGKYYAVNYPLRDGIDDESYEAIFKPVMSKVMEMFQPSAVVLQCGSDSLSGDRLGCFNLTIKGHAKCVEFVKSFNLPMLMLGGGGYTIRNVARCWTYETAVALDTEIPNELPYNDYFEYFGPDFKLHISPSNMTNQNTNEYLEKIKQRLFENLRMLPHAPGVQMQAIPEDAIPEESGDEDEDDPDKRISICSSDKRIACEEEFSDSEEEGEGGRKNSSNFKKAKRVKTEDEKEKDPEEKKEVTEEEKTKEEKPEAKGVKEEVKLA
Description: (§1) To assess the biochemical and cellular potency of 4b and its conversion products/metabolites, we utilized the two-step fluorogenic assay which measures the HDAC-mediated catalytic conversion of synthetic acetylated lysine substrates. In brief, on deacetylation of the substrates by HDAC activity, a protease site is unmasked which allows subsequent trypsin-mediated cleavage and release of the highly flourescent AMC molecules in a subsequent step of the assay. The substrates used were Lys_Ac_AMC (Bachem I-1875) for HDAC3 and (Ac)Arg-Gly-Lys(Ac) (Bachem I-1925) for HDAC1 and HDAC2. […] However, the relatively labile and sterically more demanding trifluoracetyl group is readily hydrolyzed by the catalytically less avid Class IIa enzymes, allowing measurement of Class IIa activity using the 2-step fluorogenic assay. […]
(§2) For evaluation of the class selectivity of the compounds, we assessed inhibition against purified recombinant human full length HDAC1 (cat# 50051), HDAC2 (cat# 50052), HDAC3-NcoR2 (cat# 50003) and HDAC8 (cat# 50008): as representative of Class I activity; catalytic domain HDAC4(αα 648–1057), HDAC5 (αα 657–1123; cat # 50005), HDAC7 (αα 518-end; cat # 50007) and HDAC9 (αα 604–1066; cat # 50009) activity: representing all Class IIa activity; and full length HDAC6 (cat#50006): representing Class IIb activity. […]

human recombinant HDAC2 = molecular target: T2, human recombinant HDAC2 (Homo sapiens, UniProt Q92769); assay: Two-step fluorogenic deacetylase assay, recombinant HDAC2; type: biochemical
T2 construct: purified recombinant human full length HDAC1 (cat# 50051), HDAC2 (cat# 50052); purchased BPS Bioscience (San Diego, CA) 50052
T2 sequence (Q92769 whole entry): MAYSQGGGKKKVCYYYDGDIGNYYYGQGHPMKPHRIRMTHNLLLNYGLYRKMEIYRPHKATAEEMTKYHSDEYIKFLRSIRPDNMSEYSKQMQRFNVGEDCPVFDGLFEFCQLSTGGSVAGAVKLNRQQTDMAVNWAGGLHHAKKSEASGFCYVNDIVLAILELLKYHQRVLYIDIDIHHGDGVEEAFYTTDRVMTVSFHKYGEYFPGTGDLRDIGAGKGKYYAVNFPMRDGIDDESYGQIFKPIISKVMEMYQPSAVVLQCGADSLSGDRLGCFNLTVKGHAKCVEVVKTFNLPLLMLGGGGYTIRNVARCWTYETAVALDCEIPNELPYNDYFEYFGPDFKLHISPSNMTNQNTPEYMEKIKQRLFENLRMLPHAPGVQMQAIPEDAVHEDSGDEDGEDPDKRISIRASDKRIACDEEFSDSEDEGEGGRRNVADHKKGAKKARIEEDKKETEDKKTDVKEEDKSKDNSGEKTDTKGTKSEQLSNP
Description: as §1, §2

R6/2^300Q mice = system: R6/2^300Q mice; parameters: method as in PMID 18829438; settings: cited from earlier work

Compound `Nc1ccccc1NC(=O)CCCCCC(=O)Nc1ccccc1` [Compound 4b] has a Papp A→B at 1 h, 10 µM [1] of 10.8 ×10⁻⁶ cm/s, an IC50 (human recombinant HDAC1) of 1510 nM and an IC50 (human recombinant HDAC2) of 2230 nM. For the same compound, the gene expression abnormalities (R6/2^300Q mice; 150 mg/kg subcutaneous once daily for 3 days) was “successfully ameliorated gene expression abnormalities” and the “motor performance and appearance in chronic efficacy study” value (R6/2^300Q mice; drinking water, estimated 150 mg/kg/day, from 4 months of age) was “improved motor performance”.
